Reference: patent publication US10517889B2, “Modulators of SMAD7 expression” (Ionis Pharmaceuticals, Inc., priority 2017, dated 2019)
Strand notation (5' to 3'): a small letter for the sugar, then the base; units joined by * are phosphorothioate-linked, units joined directly phosphodiester-linked; [ ] holds rarer units or linkages, { } end groups; capitals alone tell only the bases. k = constrained ethyl (cEt); [5mC] = 5-methylcytosine; d = 2'-deoxy (DNA)

Tested on: human SMAD7 mRNA
Assay: Antisense inhibition of human SMAD7 mRNA expression in Hep3B cells by 3-10-3 cEt gapmers, 10,000 nM, electroporation (Example 2)
Assay type: cell-based
Conditions: Hep3B cells, electroporation with 10,000 nM antisense oligonucleotide, approximately 24 hours; for % Inhibition: SMAD7 mRNA by RT-PCR (RTS5062), relative to untreated control cells; for % inhibition of SMAD7 mRNA expression: primer probe set RTS5062, relative to untreated control cells
Outline: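 qRT-PCR (RTS5062) of SMAD7 mRNA, normalised to RIBOGREEN total RNA, gave percent inhibition relative to untreated controls. Hep3B cells at 20,000 per well received 10,000 nM oligonucleotide by electroporation, with ~24 h treatment.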

Substance | % Inhibition | % inhibition of SMAD7 mRNA expression
799434 (antisense kT*kG*kA*dA*dA*d[5mC]*dA*d[5mC]*dG*dG*dG*dA*dA*kG*k[5mC]*kA) [compound 799434] | 37% | –
799435 (antisense kT*k[5mC]*k[5mC]*dT*d[5mC]*dA*dA*dA*d[5mC]*d[5mC]*dT*dT*dT*k[5mC]*kA*kG) [compound 799435] | 60% | –
799436 (antisense kA*kG*k[5mC]*d[5mC]*dA*dT*dT*d[5mC]*d[5mC]*dT*d[5mC]*dA*dA*kA*k[5mC]*k[5mC]) [compound 799436] | – | 4%
799437 (antisense k[5mC]*k[5mC]*kA*dG*dA*dT*d[5mC]*dT*d[5mC]*dA*dG*dG*dT*k[5mC]*kA*kA) [compound 799437] | – | 26%
799438 (antisense kA*kA*kG*dA*dG*dA*dG*dA*dA*dA*d[5mC]*dG*d[5mC]*kA*kG*kT) [compound 799438] | – | 32%
799439 (antisense kA*kA*kG*dA*dG*dG*dG*dA*d[5mC]*d[5mC]*dT*d[5mC]*dG*kG*kT*kT) [compound 799439] | – | 0%
799440 (antisense kT*kA*kG*dA*dA*dA*dA*dG*dT*dT*dA*dA*dG*kA*kG*kG) [compound 799440] | – | 41%
799441 (antisense k[5mC]*kT*kA*dG*dA*dA*dA*dA*dG*dT*dT*dA*dA*kG*kA*kG) [compound 799441] | – | 22%
799442 (antisense kG*kA*kT*dT*dT*dT*dA*dA*dA*dA*dG*dA*dG*kG*k[5mC]*k[5mC]) [compound 799442] | – | 0%
799443 (antisense kT*k[5mC]*kA*dT*dG*d[5mC]*dT*dG*dA*dT*dT*dT*dT*kA*kA*kA) [compound 799443] | – | 24%
799444 (antisense k[5mC]*kA*kT*d[5mC]*dA*dT*dG*d[5mC]*dT*dG*dA*dT*dT*kT*kT*kA) [compound 799444] | – | 45%
799445 (antisense k[5mC]*k[5mC]*kT*dA*dA*dT*d[5mC]*dT*d[5mC]*dT*dT*dT*d[5mC]*kA*kT*k[5mC]) [compound 799445] | – | 28%
799446 (antisense kG*kA*k[5mC]*d[5mC]*dT*dA*dA*dT*d[5mC]*dT*d[5mC]*dT*dT*kT*k[5mC]*kA) [compound 799446] | 48% | –
799447 (antisense kA*kT*kG*dA*dA*dT*dG*dA*d[5mC]*d[5mC]*dT*dA*dA*kT*k[5mC]*kT) [compound 799447] | 30% | –
799448 (antisense kG*kT*kA*dA*dA*dA*dT*dG*dA*dA*dT*dG*dA*k[5mC]*kT*kG) [compound 799448] | 41% | –
799449 (antisense k[5mC]*kA*kG*d[5mC]*dA*d[5mC]*dT*dG*d[5mC]*dA*dT*d[5mC]*dG*kG*kA*kA) [compound 799449] | 37% | –
799450 (antisense kA*kA*kG*dA*dA*d[5mC]*dA*d[5mC]*dA*dG*d[5mC]*dA*d[5mC]*kT*kG*k[5mC]) [compound 799450] | 53% | –
799451 (antisense kA*kA*kA*dG*dA*dA*d[5mC]*dA*d[5mC]*dA*dG*d[5mC]*dA*k[5mC]*kT*kG) [compound 799451] | 41% | –
799452 (antisense kA*kA*kA*dA*dG*dA*dA*d[5mC]*dA*d[5mC]*dA*dG*d[5mC]*kA*k[5mC]*kT) [compound 799452] | 44% | –
799453 (antisense kA*k[5mC]*kA*d[5mC]*dA*dG*d[5mC]*dA*d[5mC]*dT*dG*d[5mC]*d[5mC]*kA*kG*kG) [compound 799453] | 58% | –

Substance | % Inhibition | % inhibition of SMAD7 mRNA expression
799454 (antisense kT*kT*kA*dA*dA*dG*dA*d[5mC]*dA*dG*dA*dG*dG*kA*kG*k[5mC]) [compound 799454] | 55% | –
799455 (antisense kT*kG*kT*dT*dA*dA*dA*dG*dA*d[5mC]*dA*dG*dA*kG*kG*kA) [compound 799455] | 55% | –
799456 (antisense kT*k[5mC]*k[5mC]*dT*dA*dA*dG*dT*dA*d[5mC]*dT*dG*dT*kT*kA*kA) [compound 799456] | – | 0%
799457 (antisense k[5mC]*kA*k[5mC]*dG*dA*dT*dA*dG*dT*d[5mC]*dT*d[5mC]*dA*kG*k[5mC]*kA) [compound 799457] | – | 62%
799458 (antisense kT*kT*kG*dA*dA*dA*dA*d[5mC]*d[5mC]*d[5mC]*dA*dA*d[5mC]*k[5mC]*k[5mC]*kT) [compound 799458] | – | 3%
799459 (antisense kA*k[5mC]*kA*dG*dA*dG*dT*d[5mC]*dT*dT*dT*dG*dA*kA*kA*kA) [compound 799459] | – | 0%
799460 (antisense k[5mC]*kA*kA*d[5mC]*dA*dG*dA*dG*dT*d[5mC]*dT*dT*dT*kG*kA*kA) [compound 799460] | – | 29%
799461 (antisense k[5mC]*kT*kG*d[5mC]*dG*dA*dG*dA*dG*dA*dA*dA*dA*kA*kG*kA) [compound 799461] | – | 62%
799462 (antisense kA*kA*kG*d[5mC]*dA*d[5mC]*dT*dA*dG*dG*dT*dT*d[5mC]*kT*kG*k[5mC]) [compound 799462] | – | 43%
799463 (antisense kT*kG*kG*dT*dA*dA*dG*d[5mC]*dA*d[5mC]*dT*dA*dG*kG*kT*kT) [compound 799463] | – | 33%
799464 (antisense kA*kA*kG*d[5mC]*dA*d[5mC]*dT*dT*dG*dG*dT*dA*dA*kG*k[5mC]*kA) [compound 799464] | – | 40%
799465 (antisense kA*kG*k[5mC]*dT*d[5mC]*dT*dA*dG*dG*d[5mC]*d[5mC]*dA*d[5mC]*kT*k[5mC]*k[5mC]) [compound 799465] | – | 64%
799466 (antisense kG*kA*k[5mC]*dA*dG*dA*dA*dG*d[5mC]*dT*d[5mC]*dT*dA*kG*kG*k[5mC]) [compound 799466] | 53% | –
799468 (antisense kT*k[5mC]*kA*d[5mC]*d[5mC]*dT*dT*dA*dG*dG*d[5mC]*d[5mC]*dT*kG*kT*kG) [compound 799468] | 22% | –
799469 (antisense k[5mC]*kT*k[5mC]*d[5mC]*dG*d[5mC]*dA*dT*dA*dG*dA*d[5mC]*dA*kG*kA*kT) [compound 799469] | 69% | –
799470 (antisense kA*kA*kA*dA*dG*d[5mC]*dT*d[5mC]*d[5mC]*dG*d[5mC]*dA*dT*kA*kG*kA) [compound 799470] | 10% | –
799472 (antisense kA*kG*k[5mC]*d[5mC]*dA*dT*dA*d[5mC]*d[5mC]*dT*d[5mC]*d[5mC]*dA*kT*k[5mC]*kT) [compound 799472] | 31% | –
799473 (antisense kT*kA*kT*d[5mC]*d[5mC]*d[5mC]*dA*dT*dG*dG*d[5mC]*dT*d[5mC]*kT*k[5mC]*kA) [compound 799473] | 63% | –
799474 (antisense k[5mC]*kA*kA*dG*dA*dG*dT*d[5mC]*d[5mC]*dA*dG*d[5mC]*d[5mC]*k[5mC]*kT*kA) [compound 799474] | 39% | –
799475 (antisense kG*kT*kG*dA*dG*d[5mC]*dT*dG*dG*dG*d[5mC]*dT*dA*kT*kT*k[5mC]) [compound 799475] | 51% | –
